Results from US10449200B2, “Combined inhibition of the vitamin D receptor and poly(ADP) ribose polymerase (PARP) in the treatment of cancer” (Institute for Cancer Research, priority 2014, dated 2019).

Columns and labels:
Panc1 cells = assay: Rucaparib clonogenic assay; type: cell-based; details: Homo sapiens
Method: (§1) Cell viability assays. For clonogenic assays, 1000 cells per well were seeded into 6 well plates on day 0. Cells were treated with gemcitabine at various doses on day 1 for 24 hours, Gemcitabine was washed out on day 2, and cells were allowed to grow for a subsequent 10 days before being fixed (10% methanol+10% acetic acid) and stained with crystal violet (0.4% in 20% ethanol) for colony counting and quantitation. For Rucaparib clonogenic assays, the drug was added at various doses 24 hours after cell plating, and cells were allowed to grow for a subsequent 10 days in the presence of Rucaparib. For TSA clonogenic assays, the drug was added for 4 hours prior to addition of gemcitabine or vehicle for another 18 hours before drugs were washed away, and cells were allowed to grow in drug-free medium for 10 days.
(§2) BxPC3 and Panc1 cells were transfected with control, VDR, and BRCA1 siRNAs and their sensitivity to Rucaparib treatment was compared by clonogenic survival. […] For BXPC3 cells, the IC50s after knockdown of BRCA1 and VDR were 1 and 5 uM, respectively (FIG. 6, A) compared to the control IC50 of 9 μM.

BxPC3 cells [1] = assay: Rucaparib clonogenic assay; type: cell-based; details: Homo sapiens
Method: as §1, §2

BxPC3 cells [2] = assay: Immunofluorescence of DNA damage foci (phospho-γH2AX, Rad51, 53BP1) after gemcitabine; type: cell-based, human; details: BxPC3 VDRkd, TSA (500 nM) treatment, 4 hrs in gemcitabine (50 nM)
Method: For Immunofluorescence, cells were plated onto coverslips 24 hours pre-gemcitabine treatment. At different timepoints post gemcitabine treatment, cells were permeablized, fixed (4% paraformaldehyde) and stained. Antibodies to γH2AX (Millipore; 05-636), Rad51 (a gift), and 53BP1 were used. Alexa Fluor-conjugated (488, 555, and 647 nm) secondary antibodies (Molecular probes; A-11029, A-21428, A-21247) were used at a final concentration of 1 and nuclei counterstained with DAPI. Images were captured using a 40× or 63× high NA objective mounted on a semi-automated inverted microscope (Nikon TEi) with a charge-coupled device camera (Photometrics1394) using Nikon Elements 2.0. Exposure times for antibodies were optimized for control samples and identical exposure times used for the experimental samples. Images were quantitated and analyzed using Nikon Elements 2.0. Confocal images were taken using a Leica TCS-SP8 microscope controlled by LAS software (Leica Microsystems).
It was investigated if these repair pathways were abrogated after VDR knockdown by staining for foci formation by phospho-γH2AX, Rad51, and 53BP1, and measuring intensities after gemcitabine treatment (FIGS. 3, 4, and 5). BxPC3 (high VDR expression) and Panc1 (low VDR expression) cells were treated with gemcitabine (50 nM) for 2, 4, 8, and 18 hours, and fixed and stained for phospho-γH2AX, 53BP1, and Rad51. Foci quantitation included counting of nuclei with >5 foci and a separate measurement of the sum intensities of foci that were averaged for 5 separate immunofluorescence experiments. […] Weak but detectable phospho-γH2AX foci were visible within 4 hours of gemcitabine treatment in BxPC3 cells while it took 18 hours for foci to form in Panc1 cells (FIG. 3, A). Similarly, Rad51 foci were visible after 8 hours of gemcitabine treatment in BxPC3 cells compared to 18 hours in Panc1 cells (FIG. 3, A, FIG. 4, and FIG. 5).

Compound | IC50 (Panc1 cells; PANC-1, Panc1, control siRNA) | IC50 (Panc1 cells; PANC-1, Panc1, knockdown of BRCA1 (siRNA)) | IC50 (Panc1 cells; PANC-1, Panc1, knockdown of VDR (siRNA)) | IC50 (BxPC3 cells [1]; BXPC-3, BXPC3, knockdown of BRCA1 (siRNA)) | IC50 (BxPC3 cells [1]; BXPC-3, BXPC3, knockdown of VDR (siRNA)) | IC50 (BxPC3 cells [1]; BXPC-3, BxPC3, control siRNA) | cells exhibiting Rad51 foci (BxPC3 cells [2])
CNCc1ccc(-c2[nH]c3cc(F)cc4c3c2CCNC4=O)cc1 [Rucaparib] | 4000 nM | 3.5 nM | 400 nM | 1 µM | 5 µM | 9 µM | –
CC(/C=C/C(=O)NO)=C\[C@@H](C)C(=O)c1ccc(N(C)C)cc1 [TSA, trichostatin A] | – | – | – | – | – | – | 89%
